In patent publication EP4729516A1, “S[…] DERIVATIVE, INTERMEDIATE, PREPARATION METHOD THEREFOR AND USE THEREOF” (Jiangsu NHWA Pharmaceutical Co., Ltd, priority 2023, dated 2024):
Structures can show the parent of a compound that is named as a salt. Where two headings read alike, the source gives them in different places.

Assays:
α1A receptor = target: T1, α1A receptor (Homo sapiens, UniProt P35348); assay: Competitive receptor binding assay, α1A (3H-Prazosin, CHO-K1-α1A membranes)
T1 construct: expressed in transfected cells; host or cells: CHO-K1
T1 sequence (P35348 1-466): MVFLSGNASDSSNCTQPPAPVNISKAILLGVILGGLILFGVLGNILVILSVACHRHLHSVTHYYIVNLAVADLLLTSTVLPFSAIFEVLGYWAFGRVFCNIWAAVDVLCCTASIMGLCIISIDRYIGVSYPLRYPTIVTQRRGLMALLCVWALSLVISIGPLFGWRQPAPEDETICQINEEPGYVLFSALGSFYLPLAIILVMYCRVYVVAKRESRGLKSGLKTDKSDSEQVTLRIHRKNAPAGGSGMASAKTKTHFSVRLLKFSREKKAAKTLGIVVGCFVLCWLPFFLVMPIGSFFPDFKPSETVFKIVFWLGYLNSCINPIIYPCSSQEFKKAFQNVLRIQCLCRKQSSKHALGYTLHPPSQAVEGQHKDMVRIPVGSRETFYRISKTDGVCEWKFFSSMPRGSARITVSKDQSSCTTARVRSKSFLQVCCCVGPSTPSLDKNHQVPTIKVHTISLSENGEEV
Procedure: (§1) Test sample (compound): The theoretical sample weighing amount was calculated according to the designed concentration and the required volume. Generally, the test sample was dissolved in DMSO to an initial preparation dose of 5.0 × 10^-3 M, and the solution was sequentially diluted with DMSO to 5.0 × 10^-4 M-5.0 × 10^-9 M; the diluted DMSO solution was diluted with Buffer to a working concentration of 5.0 × 10^-5 M-5.0 × 10^-11 M; and the final concentration of DMSO in the working solution was 1% (the final concentration of DMSO in the reaction system was 0.2%). The test sample was prepared and then stored at 4 °C. After the test was completed, the test sample was discarded.
(§2) CHO-K1-α1A, CHO-K1-α2A, CHO-K1-α2B, and CHO-K1-α2C cells were taken out of a refrigerator at -80 °C, thawed naturally, and centrifuged at 2000 g at 4 °C for 10 min. The supernatant was discarded, and the pellet was collected. […] The supernatant was discarded, and the buffer was added again. […] The supernatant was discarded, and the pellet was collected and stored at -80 °C.
(§3) Table 1. Experimental conditions for radioactive binding
(§4) Step 1: 50 µL of a vehicle (1% DMSO) was added to a total binding tube (TB), 50 µL of a non-labeled substance (with a final concentration of 1.0 × 10^-5 M) was added to a non-specific binding tube (NB), and 50 µL of a test compound was added to each test compound tube (CB).
(§5) Step 2: 100 µL of a buffer was added to each reaction tube.
(§6) Step 3: The prepared membrane was suspended in a buffer to give a membrane suspension with a corresponding concentration for later use.
(§7) Step 4: 50 µL of the corresponding radioligand was added to each reaction tube.
(§8) Step 5: 50 µL of the membrane suspension was added to each reaction tube.
(§9) Step 6: Each reaction tube was incubated according to the incubation conditions. After the reaction was completed, the binding ligands were rapidly filtered under reduced pressure. The UniFilter GF/C plate was saturated with a 0.5% PEI solution 1 h in advance, fully washed with an ice-cold Tris-HCl buffer, filtered under vacuum, then placed into a thermostatic dryer, and dried for 30 min. The filter plate was taken out, and a MICROSCINT PS scintillation solution was added at 40 µL/well.
(§10) Step 7: The scintillation vial was put into a liquid scintillation counter for counting.
(§11) Based on the effect values of the compound samples at different concentration test points, the GraphPad Prism software was used to fit the action curves of the compound samples to the receptors, and the Ki values were calculated.

α2B adrenoceptor = target: T2, α2B adrenoceptor (Homo sapiens, UniProt P18089); assay: Agonist screening mode IP-One assay, CHO-α2B/Gα15 cells; type: cell-based
T2 construct: host or cells: CHO
T2 sequence (P18089 1-450): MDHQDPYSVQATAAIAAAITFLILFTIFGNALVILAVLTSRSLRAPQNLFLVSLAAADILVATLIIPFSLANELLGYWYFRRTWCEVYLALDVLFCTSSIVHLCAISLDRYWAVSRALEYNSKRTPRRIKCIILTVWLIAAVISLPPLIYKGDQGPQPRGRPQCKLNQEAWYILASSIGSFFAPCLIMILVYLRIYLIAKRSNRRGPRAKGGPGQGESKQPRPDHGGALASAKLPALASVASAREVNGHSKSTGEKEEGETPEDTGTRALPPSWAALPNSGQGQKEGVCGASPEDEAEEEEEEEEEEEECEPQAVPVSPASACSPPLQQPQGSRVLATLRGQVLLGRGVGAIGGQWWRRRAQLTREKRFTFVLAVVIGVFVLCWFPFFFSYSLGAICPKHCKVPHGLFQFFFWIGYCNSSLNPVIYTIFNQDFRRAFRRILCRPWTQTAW
Procedure: (§12) The cells were centrifuged at 1000 rpm for 5 min, and the supernatant was discarded. 3 mL of PBS was added, and the mixture was gently pipetted to be mixed well. The cells were centrifuged again at 1000 rpm for 5 min, and the supernatant was discarded. […] After shaking, the assay plates were left to stand at room temperature for 60 min. • (8) Experimental readings: The plate was read on Envision, readings from the 665 nm and 615 nm channels were taken, and the ratio of 665 nm/615 nm readings was calculated.

α2B receptor = target: T3, α2B receptor (Homo sapiens, UniProt P18089); assay: Competitive receptor binding assay, α2B (3H-RX821002, CHO-K1-α2B membranes)
T3 construct: expressed in transfected cells; host or cells: CHO-K1
T3 sequence (P18089 1-450): T2 sequence (P18089 1-450)
Procedure: as §1, §2, §3, §4, §5, §6, §7, §8, §9, §10, §11

α2C receptor = target: T4, α2C receptor (Homo sapiens, UniProt P18825); assay: Competitive receptor binding assay, α2C (3H-RX821002, CHO-K1-α2C membranes)
T4 construct: expressed in transfected cells; host or cells: CHO-K1
T4 sequence (P18825 1-462): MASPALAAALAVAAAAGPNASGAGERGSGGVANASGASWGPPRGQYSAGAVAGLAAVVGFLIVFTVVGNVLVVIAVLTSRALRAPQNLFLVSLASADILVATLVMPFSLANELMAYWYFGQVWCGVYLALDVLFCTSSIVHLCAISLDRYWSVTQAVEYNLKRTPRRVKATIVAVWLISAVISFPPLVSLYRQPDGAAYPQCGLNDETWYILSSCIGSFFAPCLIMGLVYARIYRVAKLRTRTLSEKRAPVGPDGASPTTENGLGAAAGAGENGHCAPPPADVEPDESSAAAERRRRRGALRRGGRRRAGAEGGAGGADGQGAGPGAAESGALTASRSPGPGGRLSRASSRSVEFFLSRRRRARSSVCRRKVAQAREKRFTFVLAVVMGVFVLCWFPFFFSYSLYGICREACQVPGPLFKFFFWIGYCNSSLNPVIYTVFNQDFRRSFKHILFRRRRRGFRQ
Procedure: as §1, §2, §3, §4, §5, §6, §7, §8, §9, §10, §11

α1A adrenoceptor = target: T5, α1A adrenoceptor (Homo sapiens, UniProt P35348); assay: Agonist screening mode IP-One assay, 293-α1A cells; type: cell-based
T5 construct: host or cells: 293
T5 sequence (P35348 1-466): T1 sequence (P35348 1-466)
Procedure: as §12

α2C adrenoceptor = target: T6, α2C adrenoceptor (Homo sapiens, UniProt P18825); assay: Agonist screening mode IP-One assay, CHO-α2C/Gα15 cells; type: cell-based
T6 construct: host or cells: CHO
T6 sequence (P18825 1-462): T4 sequence (P18825 1-462)
Procedure: as §12

[1] = Ki, CHO-K1-α1A membranes, 3H-Prazosin, read-out: Binding α1A
[2] = Ki, CHO-K1-α2B membranes, 3H-RX821002, read-out: Binding α2B
[3] = Ki, CHO-K1-α2C membranes, 3H-RX821002, read-out: Binding α2C

| Compound | Ki (α1A receptor; [1]) [µM] | EC50 (α2B adrenoceptor) [µM] | Ki (α2B receptor; [2]) [µM] | Ki (α2C receptor; [3]) [µM] | EC50 (α1A adrenoceptor) [µM] | EC50 (α2C adrenoceptor) [µM] | Ki (α1A receptor) [µM] | Ki (α2B receptor) [µM] | Ki (α2C receptor) [µM] |
| --- | --- | --- | --- | --- | --- | --- | --- | --- | --- |
| c1cc2c(c(Cc3c[nH]cn3)c1)SCCC2 [Compound 1, 4-[1-(Thiochroman-8-yl)methyl]-1H-imidazole] | 0.0679 | 0.00409 | 0.0591 | 0.0293 | 0.00316 | 0.0154 | – | – | – |
| CC(c1c[nH]cn1)c1cccc2c1C=CC2 (stereo not drawn) [Compound 8, 4-[1-(1H-Inden-4-yl)ethyl]-1H-imidazole] | – | 0.0177 | – | – | 0.0218 | 0.00989 | 1.13 | 0.0377 | 0.0189 |
| Cc1cccc([C@H](C)c2cnc[nH]2)c1C [Dexmedetomidine hydrochloride, reference compound] | 0.593 | 0.00096 | 0.00366 | 0.00734 | 0.00955 | 0.00205 | – | – | – |
| C[C@H](c1c[nH]cn1)c1cccc2c1CCC2 [Compound 31-b, (S)-4-[1-(2,3-dihydro-1H-inden-4-yl)ethyl]-1H-imidazole] | – | 0.00108 | – | – | 0.00794 | 0.00178 | 0.424 | 0.0329 | 0.0108 |
| CC(c1c[nH]cn1)c1cccc2c1C=CC2(C)C (stereo not drawn) [Compound 17, 4-[1-(1,1-Dimethyl-1H-inden-4-yl)ethyl]-1H-imidazole] | – | 0.00659 | – | – | 0.104 | 0.134 | > 10 | 0.244 | 0.594 |
| C[C@H](c1c[nH]cn1)c1cc(F)cc2c1C=CC2 [Compound 11-b, 4-[(1S)-1-(6-fluoro-1H-inden-4-yl)ethyl]-1H-imidazole] | – | 0.00255 | – | – | 0.0368 | 0.00087 | 0.671 | 0.0548 | 0.0238 |
| CC1Cc2cccc(C(C)c3c[nH]cn3)c2O1 (stereo not drawn) [Compound 32, 4-[1-(2-Methyl-2,3-dihydrobenzofuran-7-yl)ethyl]-1H-imidazole] | – | 0.00223 | – | – | 0.00473 | 0.00813 | 0.137 | 0.0281 | 0.0261 |
| CC(c1c[nH]cn1)c1cccc2c1SCCC2 (stereo not drawn) [Compound 2, 4-(1-[Thiochroman-8-yl)ethyl]-1H-imidazole] | 0.0912 | 0.00303 | 0.0117 | 0.0138 | 0.00532 | 0.0184 | – | – | – |
| CC(c1c[nH]cn1)c1cccc2c1OCC2 (stereo not drawn) [Compound 10, 4-[1-(2,3-Dihydrobenzofuran-7-yl)ethyl]-1H-imidazole] | – | 0.00166 | – | – | 0.0241 | 0.00399 | 0.766 | 0.00605 | 0.00644 |
| CC(c1c[nH]cn1)c1cccc2c1CCCC2 (stereo not drawn) [Compound 4, 4-(1-(5,6,7,8-Tetrahydronaphthalen-1-yl)ethyl)-1H-imidazole] | – | 0.0544 | – | – | 0.0251 | 0.278 | 2.05 | 0.0646 | 0.0461 |
| CC(c1c[nH]cn1)c1cccc2c1CC2 (stereo not drawn) [Compound 3, 4-(1-(Bicyclo[4.2.0]octa-1(6),2,4-trien-2-yl)ethyl)-1H-imidazole] | – | 0.00551 | – | – | 0.057 | 0.191 | 1.13 | 0.0623 | 0.0261 |
| C[C@H](c1c[nH]cn1)c1cc(F)cc2c1C(=O)CC2 [Compound 38-b, (S)-7-(1-(1H-imidazol-4-yl)ethyl)-5-fluoro-2,3-dihydro-1H-inden-1-one] | 3.16 | 0.00384 | 0.0491 | 0.0364 | 0.00975 | 0.00221 | – | – | – |
